Assay results published in patent publication US20200197266A1, “MICROGELS FOR THE DELIVERY OF COSMETIC ACTIVE ORGANIC SUBSTANCES” (LVMH RECHERCHE, priority 2017, published 2020).
Converted amounts (≈) assume the structure as drawn. Where two headings read alike, the source gives them in different places.

Assays:
[1] = cited from earlier work
[2] = In vitro release of cosmetic active molecules from loaded microgels by a dialysis method; settings: 35% ethanol in dialysate medium, pH 6, 25° C.
Method: The study of active molecules release kinetics was carried out by a dialysis method in order to verify that no microgel diffusion occur in dialysate medium (that may also be called “release medium”), and in order to observe the cosmetic active molecule release profile against time.
For that, active molecules-loaded microgel particle dispersions (1 mg/mg microgel) were dialyzed against a dialysate medium. Diffusion of the cosmetic active molecule from the loaded-microgel dispersion medium to the dialysate medium is observed, until an equilibrium concentration is reached between both media.
Loaded-microgel particles comprising an active molecule in an amount of 1 mg/(mg unloaded microgel) were placed inside a dialysis tube and dialyzed in different buffered dialysate media (having different pH, having different temperature, containing a solvent and/or containing a surfactant). The buffered dialysate medium can contain ethanol, citric acid, sodium phosphate dibasic or/and polyoxyethylene monooleate sorbitan (also named Polysorbate 80, Tween® 80 or INCI […]). Active substance concentration in the dialysate medium was determined by UV-Vis.
The effect of temperature on the release kinetics of active molecules was investigated with the dialysate method maintaining pH of the dialysate medium constant at 4.5. The in vitro release was studied at two different temperatures: 25° C. […]

[3] = cited from earlier work; remark: listed apart in the source

Compound	Solubility in ethanol [1]	Solubility in water [1]	Solubility in water ([1]; at 25° C.)	Incubation time in which 100% is released [2]	pKa [3]
CCCCCCOC(=O)c1ccccc1C(=O)c1ccc(N(CC)CC)cc1O [Uvinul-A, hexyl 2-[4-(diethylamino)-2-hydroxybenzoyl]benzoate]	soluble in ethanol	insoluble in water			
CC(C)=CCCC(C)CCO (stereo not shown) [Citronellol, 3,7-dimethyloct-6-en-1-ol]	very soluble in ethanol		200 µg/mL (≈ 1280 µM)		
O=C(O)c1ccccc1O [Salicylic acid, 2-Hydroxybenzoic acid, reference compound]	soluble in ethanol				
CCCCC(CC)COC(=O)c1ccccc1O (stereo not shown) [Escalol, 2-ethylhexyl salicylate]	soluble in ethanol	slighty soluble in water		≤ 6 h	
Hyaluronic acid		soluble in water			3
